“Also recorded” adds a separate entry of the source.
How the values were obtained:
[1] = tested on: obesity; conditions: mice; cited from earlier work
[2] = parent drug; cited from earlier work
[3] = tested on: LLC tumors; test: Oral Lodamin vs free TNP-470, primary Lewis lung carcinoma tumor experiments; assay type: in vivo, mouse; conditions: free TNP-470 given orally, 30 mg/kg q.o.d.
Description: For tumor experiments: LLC cells (1×10^6) or B16/F10 melanoma cells (1×10^6) were implanted subcutaneously in 8 week old C57Bl/6J male mice (Jackson Laboratories, Bar Harbor, Me.). Oral availability of free TNP-470 was compared to that of Lodamin. A dose of 30 mg/kg q.o.d. of free TNP-470 and an equivalent dose of Lodamin (Lodamin, 6 mg in 100 μl/d) were administered to LLC tumor bearing mice (˜100 mm^3) and tumor growth was followed for 18 d. Free drug was given as a suspension in double distilled water and freshly prepared before each dose. Additionally, we compared different doses and frequencies of Lodamin treatment: 15 mg/kg q.d., 15 mg/kg q.o.d. and 30 mg/kg q.o.d. To eliminate any possible effect of the vehicle (polymer without drug) one group of mice was given micelles without drug and tumor progression was compared to water treated mice.
For the melanoma tumor experiment, a dose of 15 mg/kg q.d. Lodamin was administered to B16/F10 melanoma bearing mice. In all experiments, tumor size and animal weight were monitored every 2 d. Tumor volume was measured with calipers in two diameters as follows: (width)^2×(length)×0.52. Note that all the above Lodamin doses are presented as TNP-470 equivalent.

[4] = high chemotherapeutic doses; cited from earlier work
[5] = tested on: RAGE and HMGB-1; test: RAGE and HMGB-1 protein levels in HMVEC; assay type: cell-based; conditions: 0.1-100 nM
Description: A dose dependent effect on RAGE expression was detected.
RPE cells were cultivated as has been previously described^59. […] HMVECs, were purchased from Cambrex Bio Science Inc. (Rockland, Me.) and were maintained on collagen I coated plates with endothelial cell growth medium containing 2% FBS (EGM-2; Cambrex, Inc.) at 37° C. with humidified 95% air/5% CO2.
Lodamin Reduces MCP-1 and VEGF Induced Vessel Permeability

[6] = Body distribution and serum levels after oral administration; assay type: in vivo, mouse; conditions: post-administration
Description: For all biodistribution studies we used a fluorescent marker for tracking Lodamin. Mice were administered 6-coumarin labeled mPEG-PLA by oral gavage for 3 d (100 μl of 1.5 mg/ml). On the third day of treatment, after 8 h of fasting, animals were sacrificed and spleen, kidney, brain, lungs, liver, intestine, stomach, and bladder were collected. The fluorescent 6-coumarin was extracted from the tissues by incubation with formamide for 48 h at 25° C. Samples were centrifuged and signal intensity of fluorescence of supernatants was detected with a Wallac 1420 VICTOR plate-reader (Perkin-Elmer Life Sciences) with excitation/emission at 488 nm/530 nm. […] Tissue autofluorescence was corrected by subtracting the fluorescent signal of non-treated mouse organs from the respective readings in treated mice. Similarly, levels of fluorescent signal in mouse sera were measured in different time points (1, 2, 4, 8, 24, 48 and 72 h) using excitation/emission readings at 488 nm/530 nm.
In order to analyze cell uptake in the different tissues in tumor bearing mice, PEG-PLA-rhodamine micelles (100 μl of 1.5 mg/ml) or water were orally administered to C57Bl/6J mice bearing LLC tumors (200 mm^3) for 3 d. […] These suspensions were analyzed by flow cytometry in order to quantify the uptake of micelles into different tissue cells when compared to those in the untreated mouse.

[7] = tested on: murine, human and metastatic tumors; conditions: mice, cited from earlier work
[8] = Balance beam motor coordination test (neurotoxicity); assay type: in vivo, mouse; conditions: free TNP-470 injected subcutaneously 30 mg/kg q.o.d., vs control
Description: A slightly modified balance beam motor coordination test was performed on three groups of mice: Oral Lodamin treated mice (30 mg/kg eq. q.o.d.), free TNP-470 (30 mg/kg) subcutaneously injected mice and water treated mice (administered by gavage). The mice were pretreated for 14 d (n=4-5 per group) and then the mice were allowed to acclimate to the procedure room for 1 h, after which they were trained in 3 trials to cross a wide (20 mm width×1 m length) balance beam. All the mice crossed the wide beam without making foot-slip errors. The mice were then trained on a narrow (4 mm width×1 m length) beam for 3 trials. At the end of the training trials, no freezing behavior was observed, and the mice would start to walk within 4 seconds of being placed on the beam. The mice were then videotaped as they performed in 3 test trials of 3 beam crossings each—a total of 9 crossings per mouse. The 3 trials were separated by at least 1 h to avoid fatigue of the mice. Videotaped crossings were scored for number of foot-slip errors and time to cross. All experiments and scoring of the different groups were performed by an investigator who has been no knowledge regarding the treatment regime of the mice.

6-O—(N-chloroacetylcarbamoyl)fumagillol [TNP-470]
effect on obesity [1]: prevent diet-induced and genetic obesity
plasma half-life [2]: a few minutes
effect on growth of subcutaneous LLC tumors [3]: no inhibition; also recorded: had no effect
neurotoxicity in patients [4]: many patients experience neurotoxicity
RAGE and HMGB-1 levels [5]: reduced in a dose dependent manner
time up to which free drug was detected in mice sera [6]: up to 2 h
inhibition of growth of human tumors [7]: up to 100%
inhibition of growth of metastatic tumors [7]: up to 100%
inhibition of growth of murine tumors ([7]; mostly 30 mg/kg subcutaneously every other day): up to 91%
balance beam foot-slip errors [8]: over twice as many errors
